Counter-ions that a name gives are not always drawn. Like-named read-outs stand apart in the source and are kept apart here.
Legend:
[1] = molecular target: T1, Arabidopsis TS enzyme (Arabidopsis thaliana, UniProt Q42529); experiment: TSα assay with recombinant plant TSα and TSβ expressed in E. coli; format: biochemical; conditions: inhibitor 82 uM; pAC 758 (1.5 ug) + pAC 755 (3 ug)
T1 construct: GST (N, cleaved yes); made in house; host or cells: E. coli DH5α (pGEX-2T constructs)
T1 sequence (Q42529 with tags, fused parts or gaps): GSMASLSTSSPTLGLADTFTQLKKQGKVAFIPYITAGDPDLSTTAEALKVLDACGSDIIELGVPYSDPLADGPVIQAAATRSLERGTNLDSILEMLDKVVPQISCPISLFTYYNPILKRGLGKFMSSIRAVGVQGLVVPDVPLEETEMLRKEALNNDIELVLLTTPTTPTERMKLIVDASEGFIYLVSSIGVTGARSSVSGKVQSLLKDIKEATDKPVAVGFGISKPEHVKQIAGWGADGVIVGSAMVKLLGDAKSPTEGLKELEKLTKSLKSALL
T1 sequence (P14671 with tags, fused parts or gaps partner): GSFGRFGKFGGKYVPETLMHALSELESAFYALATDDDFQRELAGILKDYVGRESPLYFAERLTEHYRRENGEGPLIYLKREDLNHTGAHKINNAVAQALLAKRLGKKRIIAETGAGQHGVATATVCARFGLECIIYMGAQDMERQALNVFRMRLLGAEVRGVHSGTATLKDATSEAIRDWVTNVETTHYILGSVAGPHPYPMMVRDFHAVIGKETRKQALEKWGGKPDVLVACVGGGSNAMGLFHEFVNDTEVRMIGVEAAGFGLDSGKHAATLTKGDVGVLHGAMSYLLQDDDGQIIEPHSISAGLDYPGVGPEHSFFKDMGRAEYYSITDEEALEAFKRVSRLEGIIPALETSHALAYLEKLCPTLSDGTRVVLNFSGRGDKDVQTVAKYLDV
Method: The plant TS proteins were expressed as fusion proteins with glutathione transferase (GST) to facilitate purification. After purification, the GST protein was cleaved off with thrombin as described above before the plant TS assays were performed. After thrombin cleavage, both TSα and TSβ-subunit proteins retained a Gly-Ser residue on the N-terminal of the protein in addition to the TS sequence. […]
The TSα enzyme assay was conducted as described in Example 3 for Salmonella TSα.
Specifically, phenylthiophosphonic acid compounds were used. The TSα assay conditions were as described for Salmonella TSα in Example 3 except that recombinant plant proteins were used instead of the Salmonella enzyme.

[2] = molecular target: T2, Salmonella typhimurium tryptophan synthase holoenzyme (α2β2), TSα reaction (Salmonella typhimurium, UniProt P00929); experiment: Inhibition of tryptophan synthase by the TSα reaction, microtiter kinetic coupled enzyme assay; format: biochemical
T2 construct: made in house; host or cells: E. coli strain CB149pSTB7
T2 sequence (P00929 whole entry): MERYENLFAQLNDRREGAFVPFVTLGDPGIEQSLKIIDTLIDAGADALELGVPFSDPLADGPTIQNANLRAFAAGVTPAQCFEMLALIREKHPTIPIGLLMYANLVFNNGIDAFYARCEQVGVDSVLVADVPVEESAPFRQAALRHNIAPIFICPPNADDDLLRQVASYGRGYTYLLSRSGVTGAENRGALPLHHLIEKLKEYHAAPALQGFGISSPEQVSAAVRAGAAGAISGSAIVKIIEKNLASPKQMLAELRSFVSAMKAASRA
T2 sequence (P0A2K1 2-397, further chain): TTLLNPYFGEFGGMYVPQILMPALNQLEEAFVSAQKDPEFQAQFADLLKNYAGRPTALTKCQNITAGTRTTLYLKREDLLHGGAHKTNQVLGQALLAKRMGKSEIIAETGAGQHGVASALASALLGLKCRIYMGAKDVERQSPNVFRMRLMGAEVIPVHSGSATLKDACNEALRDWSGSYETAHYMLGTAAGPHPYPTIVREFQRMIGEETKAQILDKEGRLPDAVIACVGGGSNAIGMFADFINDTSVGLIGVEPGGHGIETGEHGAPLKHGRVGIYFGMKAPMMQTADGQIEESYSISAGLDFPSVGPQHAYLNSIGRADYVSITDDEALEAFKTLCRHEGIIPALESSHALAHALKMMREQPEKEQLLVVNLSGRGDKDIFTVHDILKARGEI
Excerpt: Inhibitors of TS were identified by their ability to inhibit the production of glyceraldehyde-3-P by the TSα reaction of the Salmonella typhimurium holoenzyme (α2β2) in the presence of a limiting amount of indole-3-glycerolphosphate and an excess of serine
The assay was developed as a new microtiter plate kinetic enzyme assay based on the combined methods of Creighton (EurJBch 13:1-10, 1970) and Creighton and Yanofsky (JBC 241:980, 1966) with modifications. The rate of glyceraldehyde production was measured as the linear […] (spectrophotometric absorbance at 340 nm) in the presence of glyceraldehyde-3-phosphate dehydrogenase in a coupled enzyme assay.
The assay solution contained a test inhibitor compound, 50 mM Tris-Cl (pH 7.8), 6 mM sodium arsenate, 5 μg/ml pyridoxal phosphate, 0.5 mM DTT, 0.18M NaCl, 60 mM serine, 1.6 mM NAD+, 8 e.u./ml yeast glyceraldehyde-3-phosphate dehydrogenase (Sigma, Catalog #G2647; Kirschner et al., Eur J Bch, 1975, 60:513 and approximately 1.5 e.u. Salmonella TS. 100 μM IGP was added to start the reaction, which was run at 37° C. and using 300 μl per assay in a microtiter plate.
The substrate IGP was used at 1.5 to 2 times its Km concentration to enhance the likelihood of identifying weak inhibitors, binding at the substrate binding site. This approach to identifying enzyme inhibitors was novel, since an excess of all substrates, (at least 5-times the Km value of each), is conventionally used in the measurement of enzyme activity.
Potential inhibitors were evaluated by adding 100 μM inhibitor (equimolar to substrate IGP):or less, in a 1:1 dilution series down from 100 μM, until the inhibition measured was less than 15%. Reaction rates at Vmax were compared in the presence and absence of inhibitors.
In addition, some weaker inhibitors were identified following preincubation of the inhibitor with the TS assay mix for 24 hrs prior to the addition of IGP. The identifying weaker inhibitors is to aid in a quantitative structure activity relationship (QSAR) evaluation, or to identify new herbicidal inhibitor leads. The previously known inhibitor IPP was used as a standard in all tests, where the I50 for IPP was 1-2 uM.

[3] = tested on: Arabidopsis thaliana; experiment: Herbicidal activity and tryptophan reversal on Arabidopsis grown on agar medium; format: in vivo; design: key: 0 - no effect; 9 - total kill; C - chlorotic seedlings 4-6 days after treatment
Method: In this experiment, TS inhibitors were tested on Arabidopsis thaliana grown Murashige minimal organics medium, (obtained from Life Technologies, Grand Island, N.Y.), containing 0.7% agar. Compounds were tested at different concentrations to assess their herbicidal activity.

[4] = TSα reaction, Salmonella holoenzyme, 30 min at 37° C., 100 μM IGP, read-out: TS inhibition I50

In the case of `O=P(O)(O)CCCCS(=O)(=O)c1ccccc1O` [Compound 33, Phosphonic acid, {4-[(o-hydroxyphenyl)sulfonyl]butyl}-], the “TSα activity, % of control” value [1] is reported as 2.4 % of control, the “TSα activity, relative Vmax” value [1] is reported as 0.150 mOD/min and the IC50 ([2]; I50 TS, TSα reaction of Salmonella holoenzyme) is reported as 360 nM.
Compound `CP(=O)(O)CCCCSc1ccccc1N` [Phosphinic acid, {4-[(o-aminophenyl)thio]butyl}methyl-] has an IC50 [2, 4] of 100000 nM.
With `CCOP(=O)(CCCCSc1ccccc1O)OCC` [Phosphonic acid, {4-[(o-hydroxyphenyl)thio]butyl}-, diethyl ester] the herbicidal injury rating ([3]; herbicide 7.8 μM) was 0, the herbicidal injury rating ([3]; herbicide 16 μM) was 1 and the herbicidal injury rating ([3]; herbicide 31 μM) was 3. For the same compound, the herbicidal injury rating ([3]; herbicide 63 μM) was 5, the herbicidal injury rating ([3]; herbicide 125 μM) was 6 and the herbicidal injury rating ([3]; herbicide 250 μM) was 7. It also gave a herbicidal injury rating ([3]; herbicide 500 μM) of 8 and a herbicidal injury rating ([3]; herbicide 1000 μM) of 9.
For `CCOP(=O)(CCCCSc1cc(Br)ccc1N)OCC` [Phosphonic acid, {4-[2-amino-5-bromophenyl)thio]butyl}-, diethyl ester], the herbicidal injury rating ([3]; herbicide 7.8 μM) was 1, the herbicidal injury rating ([3]; herbicide 16 μM) was 1 and the herbicidal injury rating ([3]; herbicide 31 μM) was 1. The herbicidal injury rating ([3]; herbicide 63 μM) was 1, the herbicidal injury rating ([3]; herbicide 125 μM) was 4 and the herbicidal injury rating ([3]; herbicide 250 μM) was 5. For the same compound, the herbicidal injury rating ([3]; herbicide 500 μM) was 6 and the herbicidal injury rating ([3]; herbicide 1000 μM) was 8.
`O=P(O)(O)CC=CCSc1ccccc1O` [Phosphonic acid, {4-[(o-hydroxyphenyl)thio]-2-butenyl}-] was tested, and the “TSα activity, % of control” value [1] was 14.7 % of control and the “TSα activity, relative Vmax” value [1] was 0.909 mOD/min.
`Nc1ccccc1SCCCCP(=O)(O)O` [Phosphonic acid, {4-[(o-aminophenyl)thio]butyl}-, dilithium salt] showed an IC50 [2, 4] of 400 nM.
In the case of `Nc1ccc(Br)cc1SCCCCP(=O)(O)O` [Phosphonic acid, {4-[2-amino-5-bromophenyl)thio]butyl}-], the herbicidal injury rating ([3]; herbicide 7.8 μM) is reported as 1, the herbicidal injury rating ([3]; herbicide 16 μM) is reported as 1 and the herbicidal injury rating ([3]; herbicide 31 μM) is reported as 2. For the same compound, the herbicidal injury rating ([3]; herbicide 63 μM) was 3, the herbicidal injury rating ([3]; herbicide 125 μM) was 3 and the herbicidal injury rating ([3]; herbicide 250 μM) was 4. It also gave a herbicidal injury rating ([3]; herbicide 500 μM) of 4, a herbicidal injury rating ([3]; herbicide 1000 μM) of 4 and an IC50 ([2]; TS inhibition I50, TSα reaction, Salmonella holoenzyme, 30 min at 37° C., 100 μM IGP) of 70 nM. For the same compound, the “Enzyme activity, % of control” value ([2]; inhibitor 30 nM) was 70.5 % of control, the “Enzyme activity, % of control” value ([2]; inhibitor 100 nM) was 38.5 % of control and the “Enzyme activity, % of control” value ([2]; inhibitor 300 nM) was 24.7 % of control. For the same compound, the “Enzyme activity, % of control” value ([2]; inhibitor 1000 nM) was 8.7 % of control.
Compound `Nc1cc(C(F)(F)F)ccc1SCCCCP(=O)(O)O` [Phosphonic acid, {4-[(2-amino-alpha,alpha,alpha-trifluoro-p-tolyl)thio]butyl}-] has an IC50 [2, 4] of 7000 nM.
Work on `CCOP(=O)(CCCCSc1cc(Cl)ccc1N)OCC` [Phosphonic acid, {4-[(2-amino-5-chlorophenyl)thio]butyl}-, diethyl ester] yielded a herbicidal injury rating ([3]; herbicide 16 μM) of 0, a herbicidal injury rating ([3]; herbicide 31 μM) of 1 and a herbicidal injury rating ([3]; herbicide 63 μM) of 1. For the same compound, the herbicidal injury rating ([3]; herbicide 125 μM) was 3, the herbicidal injury rating ([3]; herbicide 250 μM) was 5 and the herbicidal injury rating ([3]; herbicide 500 μM) was 6. The herbicidal injury rating ([3]; herbicide 1000 μM) was 7.
With `NC1CCCCC1.NC1CCCCC1.O=P(O)(O)CCCC[S+]([O-])c1ccccc1O` (stereo not drawn) [Phosphonic acid, {4-[(o-hydroxyphenyl)sulfinyl]butyl}-, with cyclohexylamine (1:2)] the herbicidal rating ([3]; herbicide 7.8 mM + 100 μM Trp) was 0, the herbicidal rating ([3]; herbicide 7.8 mM, no Trp) was 5 and the herbicidal rating ([3]; herbicide 16 mM + 100 μM Trp) was 0. For the same compound, the herbicidal rating ([3]; herbicide 16 mM, no Trp) was 6, the herbicidal rating ([3]; herbicide 31 mM + 100 μM Trp) was 3 and the herbicidal rating ([3]; herbicide 31 mM, no Trp) was 6. It also gave a herbicidal rating ([3]; herbicide 63 mM + 100 μM Trp) of 5, a herbicidal rating ([3]; herbicide 63 mM, no Trp) of 6 and a herbicidal rating ([3]; herbicide 125 mM + 100 μM Trp) of 5. The herbicidal rating ([3]; herbicide 125 mM, no Trp) was 6, the herbicidal rating ([3]; herbicide 250 mM + 100 μM Trp) was 5 and the herbicidal rating ([3]; herbicide 250 mM, no Trp) was 7Y. It also gave a herbicidal rating ([3]; herbicide 500 mM + 100 μM Trp) of 5, a herbicidal rating ([3]; herbicide 500 mM, no Trp) of 7Y and a herbicidal rating ([3]; herbicide 1000 mM + 100 μM Trp) of 5. It also gave a herbicidal rating ([3]; herbicide 1000 mM, no Trp) of 8.
`Nc1cccnc1SCCCCP(=O)(O)O` [Phosphonic acid, {4-[3-amino-2-phridyl)thio]butyl}-] was tested, and the IC50 [2, 4] was 5000 nM.
For `Nc1ccccc1SCC=CCP(=O)(O)O` [Phosphonic acid, {4-[(o-aminophenyl)thio]-2-butenyl}-], the IC50 [2, 4] was 250 nM, the “Enzyme activity, % of control” value ([2]; inhibitor 100 nM) was 70.7 % of control and the “Enzyme activity, % of control” value ([2]; inhibitor 300 nM) was 43.4 % of control. For the same compound, the “Enzyme activity, % of control” value ([2]; inhibitor 1000 nM) was 25.3 % of control, the “Enzyme activity, % of control” value ([2]; inhibitor 3000 nM) was 13.8 % of control and the “Enzyme activity, % of control” value ([2]; inhibitor 10000 nM) was 4.5 % of control.
Compound `Nc1ccc(Cl)cc1SCCCCP(=O)(O)O` [Phosphonic acid, {4-[(2-amino-5-chlorophenyl)thio]butyl}-] has a herbicidal injury rating ([3]; herbicide 7.8 μM) of 0, a herbicidal injury rating ([3]; herbicide 16 μM) of 1 and a herbicidal injury rating ([3]; herbicide 31 μM) of 1. It also gave a herbicidal injury rating ([3]; herbicide 63 μM) of 1, a herbicidal injury rating ([3]; herbicide 125 μM) of 3 and a herbicidal injury rating ([3]; herbicide 250 μM) of 3. It also gave a herbicidal injury rating ([3]; herbicide 500 μM) of 3 and a herbicidal injury rating ([3]; herbicide 1000 μM) of 3.
“Phosphonic acid, {4-[(o-hydroxyphenyl)thio]butyl}-,aryl-butyrate (ester)” gave a herbicidal rating ([3]; herbicide 7.8 mM + 100 μM Trp) of 1, a herbicidal rating ([3]; herbicide 7.8 mM, no Trp) of 5 and a herbicidal rating ([3]; herbicide 16 mM + 100 μM Trp) of 1. It also gave a herbicidal rating ([3]; herbicide 16 mM, no Trp) of 6, a herbicidal rating ([3]; herbicide 31 mM + 100 μM Trp) of 1 and a herbicidal rating ([3]; herbicide 31 mM, no Trp) of 6. It also gave a herbicidal rating ([3]; herbicide 63 mM + 100 μM Trp) of 3, a herbicidal rating ([3]; herbicide 63 mM, no Trp) of 7 and a herbicidal rating ([3]; herbicide 125 mM + 100 μM Trp) of 5. For the same compound, the herbicidal rating ([3]; herbicide 125 mM, no Trp) was 7, the herbicidal rating ([3]; herbicide 250 mM + 100 μM Trp) was 5 and the herbicidal rating ([3]; herbicide 250 mM, no Trp) was 7. It also gave a herbicidal rating ([3]; herbicide 500 mM + 100 μM Trp) of 3, a herbicidal rating ([3]; herbicide 500 mM, no Trp) of 7 and a herbicidal rating ([3]; herbicide 1000 mM + 100 μM Trp) of 3. For the same compound, the herbicidal rating ([3]; herbicide 1000 mM, no Trp) was 7, the “TSα activity, % of control” value [1] was 2.1 % of control and the “TSα activity, relative Vmax” value [1] was 0.133 mOD/min.
